Results on one compound are retold here after patent US10329476B2, “Non-regulated synthetic acid compositions for use as alternatives to conventional acids in the oil and gas industry” (FLUID ENERGY GROUP LTD., priority 2015, dated 2019).

The series deals with human skin. The series is described as follows: Dermal exposure test. The format is in vivo. An excerpt:
The objective of this study was to evaluate the dermal irritancy and corrosiveness of the composition of Example 2, following a single application to human skin. To assess the safety upon spillage on human skin, a few drops of the synthetic acid according to a preferred embodiment of the present invention and a control composition (MSA—70%) were applied to the skin on the back of the hand of a test individual. The hands were not covered and remained exposed to the compositions for a period of up to one hour. The exposed skin was subsequently washed with soap and visual assessment of the exposed area was done 24 hours after the start of the exposure.

As to `CS(=O)(=O)O` [MSA (70%), Methanesulfonic acid], the “Dermal exposure, skin observation” value is, setting by setting: (24 hrs from exposure, after washing with soap) “scab formation”; (back of hand, 0 hrs from exposure) “immediate burning”; (back of hand, 1 hrs from exposure) “red skin irritation with large blisters”; (back of hand, ½ hrs from exposure) “small blisters”.
